The values below come from the supplement of paper PMC10307832.

Common to all, as to assay: relative viability (nuclei count vs DMSO), 5 days (fraction); higher = more cells survive
Compound in the assay “Sulindac + Alpelisib”: CC1=C(CC(=O)O)c2cc(F)ccc2/C1=C\c1ccc([S+](C)[O-])cc1 [Sulindac] + Cc1nc(NC(=O)N2CCC[C@H]2C(N)=O)sc1-c1ccnc(C(C)(C)C(F)(F)F)c1 [Alpelisib] (partner 2 µM)
In a few lines: (§1)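 Five library-drug doses in √10 steps were combined with a fixed anchor-drug dose, or a single drug was given alone, by pin tool to lung cancer cell lines in 1536-well plates the day after seeding. Nuclei were stained and counted after 5 days. Relative viability is the nuclei count in treated wells over that in vehicle wells, taken as the median of duplicate plates.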

Compound in assay [1]: CN[C@@H]1C[C@H]2O[C@@](C)([C@@H]1OC)n1c3ccccc3c3c4c(c5c6ccccc6n2c5c31)C(=O)NC4 [Staurosporine] + C[C@@H](Oc1cc(-c2cnn(C3CCNCC3)c2)cnc1N)c1c(Cl)ccc(F)c1Cl [Crizotinib] (partner 1 µM)
Put shortly:
as §1

Compound in assay [2]: CN[C@@H]1C[C@H]2O[C@@](C)([C@@H]1OC)n1c3ccccc3c3c4c(c5c6ccccc6n2c5c31)C(=O)NC4 [Staurosporine] + Nc1nc2[nH]cc(CCc3ccc(C(=O)N[C@@H](CCC(=O)O)C(=O)O)cc3)c2c(=O)[nH]1 [Pemetrexed] (partner 0.2 µM)
Put shortly:
as §1

Compound in assay [3]: O=c1[nH]cc(F)c(=O)[nH]1 [5-Fluorouracil] + CC1(C)CCC(c2ccc(Cl)cc2)=C(CN2CCN(c3ccc(C(=O)NS(=O)(=O)c4ccc(N[C@H](CCN5CCOCC5)CSc5ccccc5)c(S(=O)(=O)C(F)(F)F)c4)cc3)CC2)C1 [Navitoclax] (partner 0.5 µM)
Put shortly:
as §1

For UMC-11, the relative viability was found to be 1.1 with Sulindac + Alpelisib (first compound 0.08 µM); 1.05 with Sulindac + Alpelisib (first compound 0.253 µM); 0.876 with Sulindac + Alpelisib (first compound 0.8 µM); 0.98 with Sulindac + Alpelisib (first compound 2.53 µM); 1.11 with Sulindac + Alpelisib (first compound 8 µM); 0.544 in assay [1] (first compound 0.005 µM). Moreover, the relative viability in assay [1] (first compound 0.01581 µM) came to 0.406; in assay [1] (first compound 0.05 µM), 0.207; in assay [1] (first compound 0.1581 µM) it was 0.0703; in assay [1] (first compound 0.5 µM), 0.0402; in assay [2] (first compound 0.005 µM), 0.695; in assay [2] (first compound 0.01581 µM) it was 0.472. In addition, the relative viability in assay [2] (first compound 0.05 µM) was determined as 0.387; in assay [2] (first compound 0.1581 µM), 0.104; in assay [2] (first compound 0.5 µM) it was 0.0932; in assay [3] (first compound 0.02 µM) it was 0.386; in assay [3] (first compound 0.2 µM), 0.322; in assay [3] (first compound 0.6325 µM), 0.286. Moreover, the relative viability in assay [3] (first compound 2 µM) came to 0.241.
